This is an account of results in paper PMC7006954 (Journal of medicinal chemistry, 2016).

Read-outs that look alike come from different tables or passages of the source.

The target in assay [1] is T1, human CD4 (CD4-YFP) expression in CHO•CD4-YFP cells (Homo sapiens, UniProt P01730). As to the kind of experiment: CD4 down-modulation in CHO cells stably expressing CD4-YFP. The assay is classed as cell-based. The following applies: for DC50: read-out: IC50 CD4 (μM) mean ± SD, 50% down-modulation of CD4 expression, 24 h drug treatment.
Assay [2] deals with T1, human CD4 (CD4-YFP) expression in CHO•CD4-YFP cells. The note with it: read-out: IC50 (CD4 down-modulation); cited from earlier work.
Setting [3] is: CD4-YFP transfected CHO cells, n ≥ 3, benzyl-tailed compounds.
[4] abbreviates: stably CD4-YFP transfected CHO cells, n = 3, cyclohexylmethyl-tailed compounds.

For `C=C1CN(S(=O)(=O)c2ccc(C)cc2)CCCN(Cc2ccccc2)CCCN(S(=O)(=O)c2ccccc2N)C1` [Compound 43], the DC50 in assay [1] (setting [3]) stood at 2.12 ± 0.39 µM.

`C=C1CN(S(=O)(=O)c2ccc(C)cc2)CCCN(Cc2ccccc2)CCCN(S(=O)(=O)c2ccc3ccccc3c2)C1` [Compound 26]: the DC50 in assay [1] (setting [3]) was 0.55 ± 0.17 µM. Regarding `C=C1CN(S(=O)(=O)c2ccc(C)cc2)CCCN(Cc2ccccc2)CCCN(S(=O)(=O)c2ccc(N(C)C)cc2)C1` [Compound 32], in assay [1] (setting [3]), the DC50 was 0.17 ± 0.08 µM. With `C=C1CN(S(=O)(=O)c2ccc(C)cc2)CCCN(Cc2ccccc2)CCCN(S(=O)(=O)c2cccc(N)c2)C1` [Compound 44], in assay [1] (setting [3]), the DC50 was 1.02 ± 0.09 µM. Turning to `C=C1CN(S(=O)(=O)c2ccc(C)cc2)CCCN(Cc2ccccc2)CCCN(S(=O)(=O)c2ccc(OC)cc2)C1` [Compound 50, reference compound], the DC50 in assay [1] (setting [3]) worked out at 0.29 ± 0.09 µM.

Turning to `C=C1CN(C(=O)c2ccc(OC)cc2)CCCN(Cc2ccccc2)CCCN(S(=O)(=O)c2ccc(C)cc2)C1` [Compound 58, 9-benzyl-3-methylene-5-(p-methoxybenzoyl)-1-(p-toluenesulfonyl)-1,5,9-triazacyclododecane], the DC50 in assay [1] (setting [3]) is 4.22 ± 0.84 µM. Turning to `C=C1CN(S(=O)(=O)c2ccc(C)cc2)CCCN(CC2CCCCC2)CCCN(S(=O)(=O)c2ccc(-n3cccc3)cc2)C1` [Compound 47], the DC50 in assay [1] (setting [4]) is 0.18 ± 0.01 µM. For the compound `C=C1CN(S(=O)(=O)c2ccc(C)cc2)CCCN(Cc2ccccc2)CCCN(S(=O)(=O)c2ccc(F)cc2)C1` [Compound 37], the DC50 in assay [1] (setting [3]) was 0.92 ± 0.11 µM. As to `C=C1CN(S(=O)(=O)c2ccc(C)cc2)CCCN(Cc2ccccc2)CCCN(S(=O)(=O)c2ccc(OC)cc2OC)C1` [Compound 30], in assay [1] (setting [3]), the DC50 was found to be 1.35 ± 0.3 µM. As for `C=C1CN(S(=O)(=O)c2ccc(C)cc2)CCCN(Cc2ccccc2)CCCN(S(=O)(=O)c2cccc([N+](=O)[O-])c2)C1` [Compound 34], the DC50 in assay [1] (setting [3]) was found to be 2.02 ± 0.29 µM.

Regarding `C=C1CN(S(=O)(=O)c2ccc(C)cc2)CCCN(Cc2ccccc2)CCCN(S(=O)(=O)N(C)C)C1` [Compound 35], the DC50 in assay [1] (setting [3]) stood at 1.58 ± 0.2 µM. Consider `C=C1CN(S(=O)(=O)c2ccc(C)cc2)CCCN(Cc2ccccc2)CCCN(S(=O)(=O)c2ccc(N)cc2)C1` [Compound 45], for which the DC50 in assay [1] (setting [3]) was 2.42 ± 0.42 µM.

For orientation: IC50 means the point on the concentration scale where inhibition reaches its midpoint. Consider `C=C1CN(S(=O)(=O)c2ccc(C)cc2)CCCN(Cc2ccccc2)CCCN(S(=O)(=O)c2ccc(C)cc2)C1` [CADA, Cyclotriazadisulfonamide], for which, in assay [2], the concentration for half-maximal inhibition (IC50) is 400 nM. Consider `C=C1CN(S(=O)(=O)c2ccc(C)cc2)CCCN(CC2CCCCC2)CCCN(S(=O)(=O)c2ccc(OC)cc2)C1` [Compound 1, reference compound], for which the DC50 in assay [1] (setting [4]) turned out to be 0.15 ± 0.01 µM. Consider `C=C1CNCCCN(Cc2ccccc2)CCCN(S(=O)(=O)c2ccc(C)cc2)C1` [Compound 49, 9-Benzyl-3-methylene-1-(p-toluenesulfonyl)-1,5,9-triazacyclododecane], for which the DC50 in assay [1] (setting [3]) was above 50 µM. Same read-out and setting: the figure for `C=C1CN(S(=O)(=O)c2ccc(C)cc2)CCCN(Cc2ccccc2)CCCN(S(=O)(=O)c2ccc(OC)c(OC)c2)C1` [Compound 31] is 0.31 ± 0.06 µM. On the same count and under the same terms, the figure for `C=C1CN(C(=O)c2ccc(C)cc2)CCCN(Cc2ccccc2)CCCN(S(=O)(=O)c2ccc(C)cc2)C1` [Compound 59] is 3.78 ± 2.38 µM. On to `C=C1CN(C(=O)c2ccc(N)cc2)CCCN(Cc2ccccc2)CCCN(S(=O)(=O)c2ccc(C)cc2)C1.Cl` [Compound 62], for which, in assay [1] (50 μM compound, CD4-YFP transfected CHO cells, 24 h), the “percentage CD4 down-modulation measured at highest (50 μM) compound concentration” value was determined as 15%. Besides, in assay [1] (setting [3]), the DC50 was above 50 µM. In the case of `C#CCOc1ccc(S(=O)(=O)N2CCCN(Cc3ccccc3)CCCN(S(=O)(=O)c3ccc(C)cc3)CC(=C)C2)cc1` [Compound 56], the DC50 in assay [1] (setting [3]) was determined as 0.46 ± 0.07 µM.

In the case of `C=C1CN(S(=O)(=O)c2ccc(C)cc2)CCCN(Cc2ccccc2)CCCN(S(=O)(=O)c2ccc(OC(=S)N(C)C)cc2)C1` [Compound 57], the DC50 in assay [1] (setting [3]) stood at 6.28 ± 2.04 µM.

Take `C=C1CN(S(=O)(=O)c2ccc(C)cc2)CCCN(CC2CCCCC2)CCCN(S(=O)(=O)c2ccc(N(C)C)cc2)C1` [Compound 40, 9-Cyclohexylmethyl-1-(p-(dimethylamino)benzenesulfonyl)-3-methylene-5-(p-toluenesulfonyl)-1,5,9-triazacyclododecane]: the DC50 in assay [1] (setting [4]) was found to be 0.063 ± 0.005 µM. Take `C=C1CN(S(=O)(=O)c2ccc(C)cc2)CCCN(Cc2ccccc2)CCCN(S(=O)(=O)c2ccn(C)c2)C1` [Compound 36]: the DC50 in assay [1] (setting [3]) amounted to 3.17 ± 0.64 µM. As to `C=C1CN(S(=O)(=O)c2ccc(C)cc2)CCCN(CC2CCCCC2)CCCN(S(=O)(=O)c2ccc(O)cc2)C1` [Compound 51, 9-Cyclohexylmethyl-1-(p-hydroxybenzenesulfonyl)-3-methylene-5-(p-toluenesulfonyl)-1,5,9-triazacyclododecane], the DC50 in assay [1] (setting [4]) worked out at 1.14 ± 0.02 µM. Regarding `C=C1CN(S(=O)(=O)c2ccc(C)cc2)CCCN(Cc2ccccc2)CCCN(S(=O)(=O)N2CCOCC2)C1` [Compound 63], the DC50 in assay [1] (setting [3]) turned out to be 1.08 ± 0.1 µM. Consider `C=C1CN(S(=O)(=O)c2ccccc2)CCCN(Cc2ccccc2)CCCN(S(=O)(=O)c2ccc(C)cc2)C1` [Compound 25, 1-(benzenesulfonyl)-9-benzyl-3-methylene-5-(p-toluenesulfonyl)-1,5,9-triazacyclododecane], for which the DC50 in assay [1] (setting [3]) is 1.46 ± 0.05 µM. On to `C=C1CN(S(=O)(=O)c2ccc(C)cc2)CCCN(Cc2ccccc2)CCCN(S(=O)(=O)c2ccc(SC)cc2)C1` [Compound 41, 9-Benzyl-3-methylene-1-(p-thiomethoxybenzenesulfonyl)-5-(p-toluenesulfonyl)-1,5,9-triazacyclododecane], for which, in assay [1] (setting [3]), the DC50 was 0.23 ± 0.05 µM.

Regarding `C=C1CN(S(=O)(=O)c2ccc(C)cc2)CCCN(CC2CCCCC2)CCCN(S(=O)(=O)c2ccc(OCC)cc2)C1` [Compound 52], the DC50 in assay [1] (setting [4]) turned out to be 0.19 ± 0.01 µM. The same measure, in the same setting: the figure for `C=C1CN(S(=O)(=O)c2ccc(C)cc2)CCCN(CC2CCCCC2)CCCN(S(=O)(=O)c2ccc(OCCCN)cc2)C1` [Compound 54] is above 50 µM. Take `C=C1CN(S(=O)(=O)c2ccc(C)cc2)CCCN(CC2CCCCC2)CCCN(S(=O)(=O)c2ccc(N3CCOCC3)cc2)C1` [Compound 48]: the DC50 in assay [1] (setting [4]) was found to be 0.13 ± 0.01 µM.

Take `C=C1CN(S(=O)(=O)c2ccc(C)cc2)CCCN(Cc2ccccc2)CCCN(S(=O)(=O)c2cccc(N(C)C)c2)C1` [Compound 38]: the DC50 in assay [1] (setting [3]) turned out to be 0.79 ± 0.1 µM. Take `C=C1CN(S(=O)(=O)c2ccc(C)cc2)CCCN(CC2CCCCC2)CCCN(S(=O)(=O)c2ccc(OCCCN3C(=O)c4ccccc4C3=O)cc2)C1` [Compound 53]: the DC50 in assay [1] (setting [4]) was determined as 0.75 ± 0.06 µM.

Take `C=C1CN(S(=O)(=O)c2ccc(C)cc2)CCCN(CC2CCCCC2)CCCN(S(=O)(=O)c2ccc(N)cc2)C1` [Compound 46]: in assay [1] (setting [4]), the DC50 came out at 1 ± 0.15 µM. As for `C=C1CN(C(=O)c2ccccc2)CCCN(Cc2ccccc2)CCCN(S(=O)(=O)c2ccc(C)cc2)C1` [Compound 61], in assay [1] (setting [3]), the DC50 came to 7.32 ± 1.7 µM. Turning to `C=C1CN(S(=O)(=O)c2ccc(C)cc2)CCCN(Cc2ccccc2)CCCN(S(=O)(=O)c2ccc3c(c2)OCO3)C1` [Compound 33], the DC50 in assay [1] (setting [3]) came out at 1.06 ± 0.12 µM. For `C=C1CN(S(=O)(=O)c2ccc(C)cc2)CCCN(Cc2ccccc2)CCCN(S(=O)(=O)c2ccc(O)cc2)C1` [Compound 55], the DC50 in assay [1] (setting [3]) came out at 3.58 ± 0.54 µM.

Turning to `C=C1CN(S(=O)(=O)c2ccc(C)cc2)CCCN(Cc2ccccc2)CCCN(S(=O)(=O)c2ccc(OC(F)(F)F)cc2)C1` [Compound 29], the DC50 in assay [1] (setting [3]) amounted to 1.2 ± 0.01 µM. With `C=C1CN(S(=O)(=O)c2ccc(C)cc2)CCCN(Cc2ccccc2)CCCN(S(=O)(=O)c2ccc([N+](=O)[O-])cc2)C1` [Compound 27], the DC50 in assay [1] (setting [3]) was 5.25 ± 1.1 µM. Take `C=C1CN(S(=O)(=O)c2ccc(C)cc2)CCCN(Cc2ccccc2)CCCN(S(=O)(=O)c2ccccc2[N+](=O)[O-])C1` [Compound 28]: the DC50 in assay [1] (setting [3]) worked out at 0.7 ± 0.09 µM. As for `C=C1CN(C(=O)c2ccc([N+](=O)[O-])cc2)CCCN(Cc2ccccc2)CCCN(S(=O)(=O)c2ccc(C)cc2)C1` [Compound 60], the DC50 in assay [1] (setting [3]) is above 50 µM. As to `C=C1CN(S(=O)(=O)c2ccc(C)cc2)CCCN(CC2CCCCC2)CCCN(S(=O)(=O)c2ccc(OCCCC)cc2)C1` [Compound 39, 1-(p-Butoxybenzenesulfonyl)-9-cyclohexylmethyl-3-methylene-5-(p-toluenesulfonyl)-1,5,9-triazacyclododecane], in assay [1] (setting [4]), the DC50 was determined as 1.1 ± 0.13 µM.
